{"source": "paper PMC6049614", "about": "(Chemical Communications (Cambridge, England), 2018)", "key": {"[1]": {"target": "T1, human vasopressin receptor V2 (Homo sapiens, UniProt P30518)", "T1 construct": "expressed in transfected cells", "T1 sequence (P30518 whole entry)": "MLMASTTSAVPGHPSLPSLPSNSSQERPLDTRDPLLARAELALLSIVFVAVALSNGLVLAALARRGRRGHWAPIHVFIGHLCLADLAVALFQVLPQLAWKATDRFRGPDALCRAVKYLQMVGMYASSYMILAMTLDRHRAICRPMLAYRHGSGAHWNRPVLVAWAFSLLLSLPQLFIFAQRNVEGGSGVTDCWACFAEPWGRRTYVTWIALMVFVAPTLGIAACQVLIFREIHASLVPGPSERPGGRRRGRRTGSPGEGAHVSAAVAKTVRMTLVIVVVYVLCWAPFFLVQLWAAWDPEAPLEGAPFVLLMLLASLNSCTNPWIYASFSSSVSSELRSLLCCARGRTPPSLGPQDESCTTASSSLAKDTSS", "assay": "Scintillation proximity assay, displacement of [3H]AVP from human V2 receptor", "format": "binding", "text": "(§1) OT analogues were screened in scintillation proximity assays that displace [^3H]OT or [^3H]AVP from the corresponding receptors. […]\n(§2) All RCYs reported are decay corrected to the time of 18F delivery. The protocols for performing\n(§3) receptor radioligand binding and potency studies on transfected cells to determine affinity"}, "[2]": {"target": "T2, human OTR (Homo sapiens, UniProt P30559)", "T2 construct": "expressed in transfected cells", "T2 sequence (P30559 1-389)": "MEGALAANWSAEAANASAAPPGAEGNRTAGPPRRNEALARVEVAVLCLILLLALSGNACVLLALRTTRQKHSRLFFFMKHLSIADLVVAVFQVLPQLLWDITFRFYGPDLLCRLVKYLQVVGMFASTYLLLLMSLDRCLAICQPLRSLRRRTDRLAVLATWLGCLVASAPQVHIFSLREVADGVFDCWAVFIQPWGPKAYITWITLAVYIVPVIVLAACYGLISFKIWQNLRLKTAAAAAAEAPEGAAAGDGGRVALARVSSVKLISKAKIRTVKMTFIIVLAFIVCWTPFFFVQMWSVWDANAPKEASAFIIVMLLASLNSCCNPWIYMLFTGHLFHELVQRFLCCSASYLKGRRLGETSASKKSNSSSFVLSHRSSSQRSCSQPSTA", "assay": "Scintillation proximity assay, displacement of [3H]OT from human OTR", "format": "binding", "text": "as §1, §2, §3"}, "[3]": {"assay": "in vivo", "conditions": "rat", "experimental": "To investigate the plausibility of i.n. administration for OT-like therapies, given the similar structure and hydrophilic profile between AlF-NODA-dLVT and OT, in vivo tissue distribution of [^18F]AlF-NODA-dLVT was determined following i.n. or i.v. administration. […]. Here, it is anticipated that both routes show independent kinetic and metabolic profiles and the extended apparent availability of OT following i.n. administration supports a longer timeframe for this study.[27],[28] Distribution was determined through gamma counting of radioactivity in isolated tissue. A large portion underwent excretion via kidneys (i.v. 4.6 ± 0.4%ID per g; i.n. 1.31 ± 0.7%ID per g) and urine (i.v. 2.5 ± 1.2%ID per g; i.n. 7.7 ± 2.2%ID per g), as expected from the hydrophilic character of the tracer, similar to previous results found with radiolabelled OT given i.v. (Fig. 4A).[29]\nSupplementary Figure 5: Pharmacokinetic data acquired from three individual rats showing plasma clearance of AlF-NODA-dLVT over time. Rats received a dose of AlF-NODA-dLVT by tail vein injection (0.08 mg/kg), and blood plasma samples were taken at the specified time point for quantitative analysis by mass spectrometry. […]\nSupplementary Figure 6: Transaxial nanoPET scan showing distribution over time of [18F]AlF-NODA-dLVT. Tracer was administered either by i.v. bolus (top) or intranasally (bottom) in rat. […]"}, "[4]": {"target": "T3, human V1a receptors (Homo sapiens, UniProt P37288)", "T3 construct": "expressed in transfected cells", "T3 sequence (P37288 whole entry)": "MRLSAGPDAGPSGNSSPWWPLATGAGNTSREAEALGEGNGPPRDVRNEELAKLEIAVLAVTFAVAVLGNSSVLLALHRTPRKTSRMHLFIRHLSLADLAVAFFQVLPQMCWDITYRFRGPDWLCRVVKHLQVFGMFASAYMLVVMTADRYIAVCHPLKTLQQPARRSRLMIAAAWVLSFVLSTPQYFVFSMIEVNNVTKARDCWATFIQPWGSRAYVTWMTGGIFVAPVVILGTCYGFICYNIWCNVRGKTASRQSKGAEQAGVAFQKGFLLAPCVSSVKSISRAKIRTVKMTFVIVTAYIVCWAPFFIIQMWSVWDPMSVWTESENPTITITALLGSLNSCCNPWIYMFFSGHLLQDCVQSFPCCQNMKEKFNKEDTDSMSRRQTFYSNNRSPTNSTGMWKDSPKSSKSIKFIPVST", "assay": "Scintillation proximity assay, displacement of [3H]AVP from human V1a receptor", "format": "binding", "text": "as §1, §2, §3"}, "[5]": {"target": "T4, human vasopressin receptor V1b (Homo sapiens, UniProt P47901)", "T4 construct": "expressed in transfected cells", "T4 sequence (P47901 1-424)": "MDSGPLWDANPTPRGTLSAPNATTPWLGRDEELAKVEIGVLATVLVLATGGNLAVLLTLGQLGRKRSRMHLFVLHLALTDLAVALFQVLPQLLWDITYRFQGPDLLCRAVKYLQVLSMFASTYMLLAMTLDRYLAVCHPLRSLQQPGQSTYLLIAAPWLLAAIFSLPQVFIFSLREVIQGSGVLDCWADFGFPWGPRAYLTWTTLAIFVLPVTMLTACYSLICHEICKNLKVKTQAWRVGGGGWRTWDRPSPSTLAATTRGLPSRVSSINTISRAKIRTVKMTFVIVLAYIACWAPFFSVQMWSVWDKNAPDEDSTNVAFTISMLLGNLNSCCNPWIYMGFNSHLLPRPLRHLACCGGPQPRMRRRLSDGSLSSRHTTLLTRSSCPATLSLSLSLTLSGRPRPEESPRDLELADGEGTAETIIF", "assay": "Scintillation proximity assay, displacement of [3H]AVP from human V1b receptor", "format": "binding", "text": "OT analogues were screened in scintillation proximity assays that displace [^3H]OT or [^3H]AVP from the corresponding receptors. All peptides screened, including in a reduced state, preferentially bound human OTR with nanomolar affinity (Table 1). In line with previous studies, conjugation of a large group to position 8 afforded analogues with increased selectivity and improved affinity towards OTR[15] (approximately 60-fold for AlF-NODA-dLVT, and 7-fold for dLVT; Table 1 and ESI, ^† Fig. S1). […]. […]\ntracer, a probe for nose-to-brain oxytocin uptake in vivo\nRhiannon Beard1; Nisha Singh2,3; Christophe Grundschober4; Antony D. Gee2 and Edward W. […]\na.1Department of Chemistry, Imperial College London, Exhibition Road, London, SW7 2AZ, UK; 2Division of Imaging Sciences, King’s College London, 4th Floor, Lambeth Wing, St Thomas’ Hospital, SE1, 7EH, London, UK; 3Centre for Neuroimaging Sciences, IoPPN, KCL, De Crespigny Park, London, SE5 8AF, UK; and 4 Roche Pharma Research and Early Development, Discovery Neuroscience, Roche Innovation Center Basel, F. Hoffmann-La Roche Ltd, Grenzacherstrasse 124, 4070 Basel, Switzerland […]\nAll RCYs reported are decay corrected to the time of 18F delivery. The protocols for performing receptor radioligand binding and potency studies on transfected cells to determine affinity constants have been reported elsewhere. 1 […]"}}, "note": "Where a SMILES comes first, the peptide text is derived from it. Bridges are numbered along the chain shown (N, C = ends). [ ]: non-standard residue; d: D form. The star is where a group is joined. X1 = O=C(O)CN1CCN(CC(=O)O)CCN(Cc2ccc(CC(=O)*)cc2)CC1; Mpa = O=C(O)CCS"}
{"smiles": "CC[C@H](C)[C@@H]1NC(=O)[C@H](Cc2ccc(O)cc2)NC(=O)CCSSC[C@@H](C(=O)N2CCC[C@H]2C(=O)N[C@@H](CCCCNC(=O)Cc2ccc(CN3CCN(CC(=O)O)CCN(CC(=O)O)CC3)cc2)C(=O)NCC(N)=O)NC(=O)[C@H](CC(N)=O)NC(=O)[C@H](CCC(N)=O)NC1=O", "note": "[AlF-NODA-dLVTc] ([Mpa]YIQNCPK(X1)G-NH2; disulfide 1-6)", "values": [{"measurement": "Ki", "setting": "[1]", "result": "> 6", "unit": "µM"}, {"measurement": "selectivity towards OTR", "setting": "[2]; OTR over V1a, from Ki values of Table 1", "result": "approximately 60 fold"}, {"measurement": "Ki", "setting": "[2]; human OTR", "result": "2.6 ± 1.7", "unit": "nM"}, {"measurement": "half-life", "setting": "[3]; Wistar, iv, 0.08 mg/kg", "result": 14, "unit": "min"}, {"measurement": "increase in half-life compared to OT", "setting": "[3]", "result": "approximately 5 fold"}, {"measurement": "Ki", "setting": "[4]", "result": "157 ± 26", "unit": "nM"}, {"measurement": "Ki", "setting": "[5]", "result": "> 6", "unit": "µM"}]}
